Reference: US12478602B2, “Method for treating a disorder” (priority 2023, dated 2025)
Like-named read-outs stand apart in the source and are kept apart here.

Tests used:
[1] = tested on: mice having autism spectrum disorder; assay: Sociality experiment (three-chamber) in mouse model of autism spectrum disorder; assay type: in vivo; conditions: 500 mg/kg orally once a day for 2 weeks from age 3 weeks
Description: (§1) Pregnant C57BL/6 mice were subcutaneously injected with valproic acid (VPA) at the time when the gestation period reached 12 days. Male mice were selected from the mice that were born from the pregnant mice that were subcutaneously injected with VPA, and these were used as animals for a mouse model of autism spectrum disorder.
(§2) Since 3-week-old mice are at the critical stage, 3-week-old normal mice and 3-week-old mice having autism spectrum disorder were subjected to a sociality experiment, a social cognition experiment, and an anxiety experiment to identify the underlying features. 500 mg/kg of L-serine (hereinafter, referred to as AST-001) was orally administered for 2 weeks to mice having autism spectrum disorder, in which the underlying features had been confirmed. The mice having autism spectrum disorder, to which AST-001 had been orally administered for 2 weeks, were again subjected to a sociality experiment, a social cognition experiment, and an anxiety experiment.
A behavioral experiment, which checks whether or not an experimental mouse moves in the direction of a social object in a case where a social object (a non-familiar mouse) and a non-social object (an empty cage) are placed in both side rooms of a three-chamber having three connected rooms, was carried out (see FIG. 1A). […]

[2] = tested on: mice having autism spectrum disorder; assay: Social cognition experiment in mouse model of autism spectrum disorder; assay type: in vivo; conditions: 500 mg/kg orally once a day for 2 weeks from age 3 weeks
Description: as §1, §2
A social cognition experiment, which measures whether or not an experimental mouse moves in the direction of a non-familiar mouse in a case where the experimental mouse is placed between a non-familiar mouse and a familiar mouse, was carried out (see FIG. 1B). […]

[3] = tested on: mice having autism spectrum disorder; assay: Anxiety experiment (elevated plus maze) in mouse model of autism spectrum disorder; assay type: in vivo; conditions: 500 mg/kg orally once a day for 2 weeks; vs untreated autism spectrum disorder mouse
Description: as §1, §2
For 2 weeks from the age of 3 weeks, the normal group and the autism spectrum disorder group were subjected to oral administration with water every day once a day, and in the drug group, mice having autism spectrum disorder were orally administered with 500 mg/kg of AST-001 (dissolved in water) once a day. […]

[4] = tested on: cortical layer 5 pyramidal neurons; assay: Synaptic pruning: dendritic spine density; assay type: in vivo, mouse; conditions: 400 mg/kg orally for 2 weeks
Protocol: A mouse model of autism spectrum disorder was created with the method described in Example 1.1. It is known that in autism spectrum disorder, the number of dendrites increases more than necessary due to troubles in synaptic pruning at the critical stage. Therefore, an experiment, which checks whether or not the number of dendrites can be normalized by AST-001 administration, was carried out. After oral administration of 400 mg/kg of AST-001 for 2 weeks to 3-week-old male autism spectrum disorder mice (n=8), it was checked whether or not the spine density of the synaptic dendrites was similar to that of the control group male normal mice (n=3). […] As a result, it was confirmed that oral administration of AST-001 normalizes synaptic pruning at the critical stage in autism spectrum disorder.

[5] = Pharmacokinetic experiment in Beagle dog; assay type: in vivo; conditions: for bioavailability / half-life: Beagle, dog, plasma; for bioavailability: po, read-out: bioavailability by the oral administration; for half-life: read-out: drug loss half-life (t1/2) (converted); for AUCinf: fasting
Protocol: 4 g or 8 g of L-serine was orally or intravenously administered to Beagle dogs (1.8 to 2.6 years old, 8.6 to 11.6 kg, n=20). Blood collection was divided into blood collection before L-serine administration (basal blood collection) and blood collection after administration (main blood collection). During the experiment, the Beagle dogs were maintained in a fasting state, and L-serine concentration in the plasma was analyzed by LC-MS/MS.

healthy adults = assay: Safety evaluation in healthy adults; assay type: in vivo, human; conditions: single oral up to 30 g per day; 15 g twice a day for 7 days
Protocol: 24 hours before the administration with AST-001 (main component: L-serine), blood was collected to measure the concentration of L-serine. 60 g of an AST-001 powder is a white homogeneous powder without having foreign substances, divided and repackaged into an HDPE bottle or a bottle made of the same material, and the composition of this drug is such that 1,000 mg of the main component L-serine is comprised per 1,000 mg dose. […] As a result, it was confirmed that AST-001 can be safely administered within a dose range of 10 to 30 g per day for indications that require repeated administration. The results of the pharmacokinetic analysis in the AST-001 repeated administration test in healthy adult males are as shown in Table 2 below.

[6] = tested on: pediatric patients having autism spectrum disorder; conditions: human, in vivo
[7] = tested on: pediatric patients having autism spectrum disorder; assay: Clinical trial of 52-week continuous administration, safety

Structure (SMILES): N[C@@H](CO)C(=O)O [AST-001, L-serine]
- interaction time with the social object vs interaction time with the empty cage [1]: significantly higher
- preference index for the social object [1]: high
- interaction time with the non-familiar mouse vs interaction time with the familiar mouse [2]: significantly higher
- preference index for the non-familiar mouse [2]: high
- time staying in the closed-arm space of the elevated plus maze [3]: short time
- time staying in the open-arm space of the elevated plus maze [3]: remarkably long time
- number of dendrites (spine density of the synaptic dendrites) [4]: significantly reduced and similar to that of the control group
- bioavailability ([5]; 4 g per individual): 106%
- bioavailability ([5]; 8 g per individual): 84.2%
- half-life ([5]; oral 4 g): 3.8 ± 1.4 h
- half-life ([5]; oral 8 g): 4.7 ± 1.8 h
- AUCinf ([5]; oral 4 g): 628 ± 108 µg·h/mL
- AUCinf ([5]; oral 8 g): 1330 µg·h/mL
- safety and drug tolerance (healthy adults): excellent safety and drug tolerance
- Adverse event [TEAE], Events [6]: 41
- serious adverse events and deaths evaluated to be related ([7]; 52-week continuous administration): no serious adverse events and no deaths
- COVID-19 infection adverse events ([7]; high dose group): 6 events
- COVID-19 infection adverse events ([7]; low dose group): 5 events
